The test deals with Male C57BL/6/Bkl mice. Kind of test: Forced swimming test in mice. The test is classed as in vivo. As to the method: Male C57BL/6/Bkl mice (Scanbur BK AB, Sweden) weighing 20-25 g were used. Mice were kept 10 per cage (21×37×15 cm) in an animal house at 20° C. in a 12 h light/dark cycle (light on at 7.00 a.m.). Tap water and food pellets were available ad libitum. The animals were kept for at least two weeks in the animal colony before entering experiments. The measurement of locomotor activity, and forced swimming test were carried out consecutively 45 and 55 min after treatment with study compounds, according to Volke V, Wegener G, Bourin […]. […] Behavioural Brain Research 2003; 140: 141-147. In a separate experiment arginase product L-ornithine or saline was injected 15 min prior to L-norvaline. The Forced Swimming test was performed as described by Porsolt et al Porsolt R D, Bertin A, Jalfre M. Behavioral despair in mice: a primary screening test for antidepressants. Arch Int Pharmacodyn Ther 1977; 229: 327-336. A glass cylinder with a diameter of 12 cm was filled with 8 cm water at 25° C. An animal was put into the water and its behaviour was videotaped during 6 min. An observer blind to treatment protocol counted the immobility time during the last 4 min of the 6 min test.

Setting [1] is: Example 2, separate experiment (FIG. 2), 500 mg/kg each, L-ornithine or saline injected 15 min prior to L-norvaline, saline 199 sec.

The values that follow come from patent US20110318271A1, “Arginase Inhibitors for the Treatment of Depression” (UNIVERSITY OF TARTU, priority 2008, published 2011).

Turning to `CCC[C@H](N)C(=O)O` [L-norvaline], the immobility time was 146 s (20 mg/kg i.p., 55 min after treatment, last 4 min of 6 min test, control 220 sec (FIG. 1)); 107 s (100 mg/kg i.p., 55 min after treatment, last 4 min of 6 min test, control 220 sec (FIG. 1)); 96 s (500 mg/kg i.p., 55 min after treatment, last 4 min of 6 min test, control 220 sec (FIG. 1)); 127 s under setting [1].
Under setting [1], `NCCC[C@H](N)C(=O)O` [L-ornithine] registered an immobility time of 214 s.
difluoromethylornithine [DFMO]: the immobility time (400 mg/kg i.p., separate experiment, control 219 sec) was 191 s. In addition, the “effect on immobility time” value (lower doses 10-100 mg/kg i.p.) was “ineffective”.
